In patent publication US20210214607A1, “LONG WAVELENGTH EMITTING CHEMILUMINESCENT PROBES” (NEMIS Technologies AG, priority 2018, published 2021):
Each block holds one compound with its values, some of them ahead of it.

Experiments:
[1] = Chemiluminescence upon reaction with H2O2 in PBS; format: physicochemical; conditions: compound 100 μM, H2O2 1 mM, PBS (pH 7.4) (10% DMSO)
Experimental: (§1) All reactions were carried out at room temperature unless stated otherwise. Chemicals and solvents were either A.R. grade or purified by standard techniques. Thin layer chromatography (TLC): silica gel plates Merck 60 F254: compounds were visualized by irradiation with UV light. Column chromatography (FC): silica gel Merck 60 (particle size 0.040-0.063 mm), eluent given in parentheses. Reverse-phase high pressure liquid chromatography (RP-HPLC): C18 5u, 250×4.6 mm, eluent given in parentheses. Preparative RP-HPLC: C18 5u, 250×21 mm, eluent given in parentheses. Fluorescence and chemiluminescence were recorded on Molecular Devices Spectramax i3x.
The respective chemiluminescent kinetic profile is shown in FIG. 1 and the total light emission with [1 mM] or without the presence of H2O2 is shown in FIG. 2.
The chemiluminescent kinetic profile is shown in FIG. 5 and the total light emission with and without the presence of H2O2 is shown in FIG. 6.

[2] = Chemiluminescent emission spectrum in PBS; format: physicochemical; conditions: compound 100 μM, PBS (pH 7.4) (10% DMSO)
Experimental: as §1

emission maximum ([1]; 37° C.): 660 nm
SMILES: COC1(c2ccc(/C=C/c3cc[n+](CCCCCC(=O)O)cc3)c(OCc3ccc(B4OC(C)(C)C(C)(C)O4)cc3)c2Cl)OOC12C1CC3CC(C1)CC2C3 (stereo not drawn) [Ia1]

intensity of emission [2]: visible by the naked eye
SMILES: COC1(c2ccc(/C=C/c3cc[n+]([O-])cc3)c(O)c2Cl)OOC12C1CC3CC(C1)CC2C3 (stereo not drawn) [Ia2]

emission maximum ([1]; 26° C.): 650 nm
SMILES: COC1(c2ccc(/C=C/c3cccc[n+]3CCCCCC(=O)O)c(OCc3ccc(B4OC(C)(C)C(C)(C)O4)cc3)c2Cl)OOC12C1CC3CC(C1)CC2C3 (stereo not drawn) [Ia3]
